Reference: patent publication US11419916B2, “Methods and compositions for inducing differentiation of human brown adipocyte progenitors” (Energesis Pharmaceuticals, Inc., priority 2014, dated 2022)
Counter-ions that a name gives are not always drawn.

B1: CNTF: ciliary neurotrophic factor (protein, UniProt P26441 1-200, looked up)
Ciliary neurotrophic factor: MAFTEHSPLTPHRRDLCSRSIWLARKIRSDLTALTESYVKHQGLNKNINLDSADGMPVASTDQWSELTEAERLQENLQAYRTFHVLLARLLEDQQVHFTPTEGDFHQAIHTLLLQVAAFAYQIEELMILLEYKIPRNEADGMPINVGDGGLFEKKLWGLKVLQELSQWTVRSIHDLRFISSHQTGIPARGSHYIANNKKM
B2: FGF13: fibroblast growth factor-13 (protein, UniProt Q92913 1-245, looked up)
Fibroblast growth factor 13: MAAAIASSLIRQKRQAREREKSNACKCVSSPSKGKTSCDKNKLNVFSRVKLFGSKKRRRRRPEPQLKGIVTKLYSRQGYHLQLQADGTIDGTKDEDSTYTLFNLIPVGLRVVAIQGVQTKLYLAMNSEGYLYTSELFTPECKFKESVFENYYVTYSSMIYRQQQSGRGWYLGLNKEGEIMKGNHVKKNKPAAHFLPKPLKVAMYKEPSLHDLTEFSRSGSGTPTKSRSVSGVLNGGKSMSHNEST
B3: FGF7: fibroblast growth factor-7, keratinocyte growth factor (protein, UniProt P21781 32-194, looked up)
Fibroblast growth factor 7: CNDMTPEQMATNVNCSSPERHTRSYDYMEGGDIRVRRLFCRTQWYLRIDKRGKVKGTQEMKNNYNIMEIRTVAVGIVAIKGVESEFYLAMNKEGKLYAKKECNEDCNFKELILENHYNTYASAKWTHNGGEMFVALNQKGIPVRGKKTKKEQKTAHFLPMAIT
B4: BDNF: brain-derived neurotrophic factor (protein, UniProt P23560 19-247, looked up)
Neurotrophic factor BDNF …: APMKEANIRGQGGLAYPGVRTHGTLESVNGPKAGSRGLTSLADTFEHVIEELLDEDQKVRPNEENNKDADLYTSRVMLSSQVPLEPPLLFLLEEYKNYLDAANMSMRVRRHSDPARRGELSVCDSISEWVTAADKKTAVDMSGGTVTVLEKVPVSKGQLKQYFYETKCNPMGYTKEGCRGIDKRHWNSQCRTTQSYVRALTMDSKKRIGWRFIRIDTSCVCTLTIKRGR
B5: FGF10: fibroblast growth factor-10, keratinocyte growth factor-2 (protein, UniProt O15520 38-208, looked up)
Fibroblast growth factor 10: QALGQDMVSPEATNSSSSSFSSPSSAGRHVRSYNHLQGDVRWRKLFSFTKYFLKIEKNGKVSGTKKENCPYSILEITSVEIGVVAVKAINSNYYLAMNKKGKLYGSKEFNNDCKLKERIEENGYNTYASFNWQHNGRQMYVALNGKGAPRRGQKTRRKNTSAHFLPMVVHS

Each molecule was assayed on CD31-cells (brown adipocyte progenitors) (assay: Quantification of UCP1 protein by immunohistochemistry (IHC)). Conditions: total intensity of UCP1 signal normalized to cell number.
Type: cell-based, human
Method: Differentiation of brown adipocyte progenitors into brown adipocytes can be detected through quantification of UCP1 protein by immunohistochemistry (IHC).
Culturing and differentiation of CD31-cells into brown adipocytes were performed using adipogenic differentiation medium lacking (Minimal Differentiation Medium, MDM) or containing 1 μM rosiglitazone (Reference Differentiation Medium, RDM). After 15 days of differentiation cells were fixed with 4% Paraformaldehyde PBS pH 7.4, and incubated with a UCP1 antibody (Abcam ab23841) and Alexafluor 488 goat anti-rabbit antibody to quantify relative UCP1 levels (green) according to standard protocols. Prior to fixation of cells, nuclei were labeled with 5 μM DAPI (blue) for 10 minutes. Each treatment condition was evaluated in triplicate in a 96-well plate corresponding to approximately 360-480 cells for each data point in total. The InCell 1000 Developer Toolbox software was used to develop an automated cell detection script to measure UCP1 signal intensity, using the nuclei and cytoplasm detection algorithms. As a readout, total intensity of UCP1 signal within the cell was used, normalized to cell number.

| Molecule | UCP1 protein signal (IHC), differentiation of brown adipocyte progenitors into brown adipocytes |
| --- | --- |
| CCSc1ccc2c(c1)N(CCCN1CCN(C)CC1)c1ccccc1S2 [Thiethylperazine] | identified using this technique |
| COc1cc2c(c(OC)c1OC)-c1ccc(OC)c(=O)cc1[C@@H](NC(C)=O)CC2 [Colchicine] | identified using this technique |
| NC(N)=Nc1nc(CSCCC(N)=NS(N)(=O)=O)cs1 [Famotidine] | identified using this technique |
| N=C(N)NC(=O)Cc1c(Cl)cccc1Cl [Guanfacine hydrochloride] | identified using this technique |
| CN(C)C(=N)N=C(N)N [Metformin] | identified using this technique |
| COC(=O)[C@H]1[C@H]2C[C@@H]3c4[nH]c5cc(OC)ccc5c4CCN3C[C@H]2C[C@@H](OC(=O)c2cc(OC)c(OC)c(OC)c2)[C@@H]1OC [Reserpine] | identified using this technique |
| O=C(CCCN1CCC2(CC1)C(=O)NCN2c1ccccc1)c1ccc(F)cc1 [Spiperone] | identified using this technique |

What follows are molecules tested on CD31-cells (BAT progenitor cells isolated from human skeletal muscle) (assay: Quantification of UCP1 and PPARγ2 mRNA (normalized to cyclophilin A) by multiplexed TaqMan real-time PCR to quantify differentiation into brown adipocytes). Conditions: not given.
Type: cell-based
Description: A robust method, previously disclosed in WO2013071063 and incorporated herein by reference, was used for detection of CD31-cell differentiation into brown adipocytes by simultaneously quantifying mRNA species corresponding to the brown adipocyte marker UCP1, the adipocyte marker PPARγ2, and the “housekeeping” gene cyclophilin A which was used as the internal control.
This method permits analysis of a large number of samples to identify agents that enhance the differentiation of CD31-cells into brown adipocytes. When differentiated into brown adipocytes CD31-cells express much higher levels of UCP1 and PPARγ2 mRNA for a given level of cyclophilin A. UCP1 and PPARγ2 mRNA levels normalized to cyclophilin A mRNA levels give an indication of the level of differentiation of the CD31-cells into brown adipocytes, independent of the total number of cells in the sample.
Quantification of UCP1, PPARγ2 and cyclophilin A mRNA by multiplexed TaqMan real-time PCR was thus used to quantify differentiation of the CD31-cells into brown adipocytes.
Cells were seeded at 10,000 per cm^2 in 0.2% gelatin coated plates (48-well tissue culture, Chemglass #CLS-3500-048), cultured until confluency (2-4 days) at 37° C. in Endothelial cell growth medium-2 (EGM2) (BulletKit growth medium, Lonza #CC-3162) and until differentiation (10-16 more days). After 2 or 3 days in EGM2 medium the cells were induced to differentiate by replacing the medium with an adipogenic medium, which is a modification of the adipogenic medium described by Rodriguez et al. and may or may not contain a differentiation inducing agent (e.g., PPARγ agonist). […] If rosiglitazone is used as a differentiation-inducing agent, it can be supplied at 1 μM or any other concentration sufficient to induce differentiation of BAT progenitor cells into adipocytes.
Total RNA was prepared from cells using PureLink RNA Isolation Kit (Invitrogen #12183-016) First strand cDNA were synthesized using the High Capacity cDNA Reverse Transcription kit (Applied Biosystems, Foster City, Calif.) and random primers.
Quantitative real-time PCR was performed using an Applied Biosystems StepOnePlus™ instrument, TaqMan Gene Expression Master Mix (Applied Biosystems #4369016), and custom TaqMan gene expression probes and primers for human uncoupling protein-1 “UCP1” (GenBank NM_021833) and for human peptidylprolyl isomerase A “cyclophilin A” (GenBank NM_021130).
Cyclophilin A was used as a control to account for any variations due to the efficiency of reverse transcription. Arbitrary units were determined by normalizing target mRNA levels to cyclophilin A mRNA levels (based on Cts).

| Molecule | differentiation of BAT progenitor cells into brown adipocytes and/or expression of UCP1, PPARγ2 mRNA |
| --- | --- |
| orexin B: orexin B | promote the differentiation of BAT progenitor cells into brown adipocytes and/or induce the expression of UCP1 |
| BNP: b-type natriuretic peptide | promote the differentiation of BAT progenitor cells into brown adipocytes and/or induce the expression of UCP1 |
| COC(=O)N(C)c1c(N)nc(-c2nn(Cc3ccccc3F)c3ncccc23)nc1N [riociguat] | promote the differentiation of BAT progenitor cells into brown adipocytes and/or induce the expression of UCP1 |
| CC1CCC(C(C)C)C(O)C1 (stereo not drawn) [menthol] | promote the differentiation of BAT progenitor cells into brown adipocytes and/or induce the expression of UCP1 |
| bombesin | promote the differentiation of BAT progenitor cells into brown adipocytes and/or induce the expression of UCP1 |
| CC1(C)CC[C@]2(C(=O)O)CC[C@]3(C)C(=CC[C@@H]4[C@@]5(C)CC[C@H](O)C(C)(C)[C@@H]5CC[C@]43C)[C@@H]2C1 [oleanolic acid] | promote the differentiation of BAT progenitor cells into brown adipocytes and/or induce the expression of UCP1 |
| PACAP Propeptide of 55 aa (aa 25-79): peptide derived from the Pituitary adenylate cyclase-activating polypeptide (PACAP, ADCYAP1, UniProt P18509) gene (SPAAAGLRFPGIRPEEEAYGEDGNPLPDFDGSEPPGAGSPASAPRAAAAWYRPAG; UniProt P18509 25-79, looked up, fragment) | promote the differentiation of BAT progenitor cells into brown adipocytes and/or induce the expression of UCP1 |
| COc1ccc(C2CNC(=O)C2)cc1OC1CCCC1 (stereo not drawn) [rolipram] | promote the differentiation of BAT progenitor cells into brown adipocytes and/or induce the expression of UCP1 |
| CN/C(=N\c1ccc(C2=NNC(=O)CC2C)cc1)NC#N (stereo not drawn) [siguazodan] | promote the differentiation of BAT progenitor cells into brown adipocytes and/or induce the expression of UCP1 |
| interleukin-6 (IL-6): Interleukin-6, UniProt P05231 | promote the differentiation of BAT progenitor cells into brown adipocytes and/or induce the expression of UCP1 |
| O=C1NC(c2cccc([N+](=O)[O-])c2)=CCN1c1ccccc1O [icilin] | promote the differentiation of BAT progenitor cells into brown adipocytes and/or induce the expression of UCP1 |
| CCCCC[C@H](O)/C=C/[C@@H]1[C@@H](C/C=C\CCCC(=O)O)[C@H](O)C[C@H]1O [9β,11α-prostaglandin F2] | promote the differentiation of BAT progenitor cells into brown adipocytes and/or induce the expression of UCP1 |
| B1 | promote the differentiation of BAT progenitor cells into brown adipocytes and/or induce the expression of UCP1 |
| B2 | promote the differentiation of BAT progenitor cells into brown adipocytes and/or induce the expression of UCP1 |
| B3 | promote the differentiation of BAT progenitor cells into brown adipocytes and/or induce the expression of UCP1 |
| B4 | promote the differentiation of BAT progenitor cells into brown adipocytes and/or induce the expression of UCP1 |
| B5 | promote the differentiation of BAT progenitor cells into brown adipocytes and/or induce the expression of UCP1 |
